Legend:
[1] = Dynamic water vapor adsorption measurements (DVS); format: physicochemical; details: water vapor sorption
Description: It is known that the anhydrous form A of Deferasirox converts to a hydrate form upon exposure to high relative humidity, therefore anhydrous Deferasirox is hygroscopic. The multicomponent crystalline system described here is characterized in that it has good hygroscopic properties, i.e. absorb little water at high relative humidity. This is evident from table 1 below, which compares the water contents of the multicomponent crystalline system and Deferasirox free drug substance at 50% and 95% relative humidity. The data originate from dynamic water vapor adsorption measurements. The water vapor sorption measurement is a suitable method for investigating the hygroscopic properties of solid substances. Water vapor sorption measurements can be carried out in different ways. In general, in this connection, a small sample of ca. 10-30 mg is introduced into a microbalance in a suitable sample carrier. The sample is then exposed to different relative humidities in accordance with a defined program, the change in the sample mass being simultaneously recorded over the time. […]
Dynamic water vapor adsorption measurements were carried out using an SPS11 100 n instrument, manufactured by “Projekt Messtechnik” in Ulm, Germany. […] The sample was then subjected to preselected relative humidities in accordance with a defined program, the change in mass being determined over the time. […]

[2] = Aqueous solubility determination (suspension equilibration for three days, HPLC); format: physicochemical; details: pure water, 25±2° C. (ambient temperature), about three days of suspension equilibration, filtered solution
Method: The aqueous solubility of Deferasirox free drug substance and the multicomponent crystalline system of the present invention (Deferasirox-Isonicotinamide co-crystal) was determined in water at ambient temperature after about three days of suspension equilibration using HPLC for the determination of the concentration in the filtered solution.
Solubility determinations were carried out in pure water at 25±2° C. Suspensions with about 50 mg the solid form, either the co-crystal of the present invention or deferasirox free drug substance in 7 mL water were prepared an equilibrated for three days before the solution phase was filtered off and tested by HPLC.
HPLC was carried out on an Agilent 1100 HPLC chromatograph equipped with a UV-vis detection unit. The column type used was a Waters XTerra MS C18, 100×4.6 mm, 5 μm (FK-CC01F). […]
882 mg of Deferasirox and 290 mg of isonicotinamide are dissolved in a mixture of 15 ml acetone and 3 ml THF by shortly heating to reflux temperature. […] Then suspension is filtered and the concentration in the solution determined by HPLC. […]

H2O content at 50% r.h. ([1]; 50% relative humidity): 0.5%
H2O content at 95% r.h. ([1]; 95% relative humidity): 3.6%
solubility thermodynamic at 3 days [2]: < 1 µg/mL
Compound: O=C(O)c1ccc(-n2nc(-c3ccccc3O)nc2-c2ccccc2O)cc1 [Deferasirox free drug substance, 4-[3,5-bis(2-hydroxyphenyl)-1H-1,2,4-triazol-1-yl]benzoic acid]

Source: patent US9290452B2, “Multicomponent crystalline system comprising deferasirox and isonicotinamide and a process for the preparation thereof” (BASF SE, priority 2012, dated 2016)
